Results on 4 compounds are retold here after patent publication US8846329B1, “Microorganisms for producing organic acids” (Wisconsin Alumni Research Foundation, priority 2012, dated 2014).

The test system of series [1] is Synechocystis sp. PCC 6803. Nature of the series: Minimum inhibitory concentration of organic acids. Conditions: for MIC: Synechocystis; for Minimum inhibitory concentration: Table 3. The series is classed as cell-based. From the text: (§1) One aspect of the increased tolerance to organic acids is an increase in the minimal inhibitory concentration (MIC) of a particular organic acid compared to a corresponding microorganism. MIC is the lowest concentration of an agent that will inhibit growth of a microorganism. An MIC can be determined by titrating the agent in the growth medium of the microorganism. The lowest concentration of the agent in which the microorganism is no longer able to grow is the MIC. Methods of culturing microorganisms and of detecting their growth are well known in the art and are not discussed in detail herein.
(§2) Because of this, the toxicity of organic acids generally increases with the hydrophobicity of the compound [35]. The minimum inhibitory concentrations (MIC) for PCC 7002, Synechococcus sp. PCC 7942, and Synechocystis sp. PCC 6803 were determined for acrylic acid, 3HP, and propionic acid at a pH of about 8 (Table 1). […] The low MIC for acrylic acid explains why cultures grown with DMSP become growth inhibited. Cultures with DMSP only show growth inhibition when the accumulating acrylic acid concentration reaches inhibitory concentrations.
(§3) Homologous genes were identified in the cyanobacteria Synechocystis sp. PCC 6803 (s110542; SEQ ID NOS:3 and 4) and Synechococcus sp. PCC 7942 (SYNPCC7942—1342; SEQ ID NOS:5 and 6). […] When selecting for growth of Synechocystis sp. PCC 6803 on 50 μM acrylic acid, the mutation frequency was 2×10^−6.

The test system of series [2] is PCC 7002 acsA:BC glpK::acsA aadA. Nature of the series: Minimum inhibitory concentration, acsA complementation strain. It is filed as cell-based, Synechococcus sp. PCC 7002. The following applies: Synechococcus, read-out: Minimum inhibitory concentration. How it is done: (§4) Deletion and complementation studies were performed in various Synechococcus spp. and Synechocystis spp. Replacement of the gene acsA in Synechococcus sp. […] An identical level of increase was observed when acsA was replaced with a 20 base-pair barcode sequence. This phenotype was complemented in an acsA deletion strain by expression of acsA under the native promoter in another locus on the chromosome (glpK).

In series [3] the test system is PCC 7002 acsA::aadA. Nature of the series: microbe, parasite or virus in culture. Conditions: for Increase in MIC on functional deletion of the acsA gene product: Synechococcus sp. PCC 7002, pH of about 8. The series is classed as cell-based, Synechococcus sp. PCC 7002. How it is done:
This hypothesis was tested by creating a knockout mutant of the acsA gene. This knockout was created by transforming wild type PCC 7002 with a DNA construct that would replace the acsA gene with an antibiotic resistance marker through homologous recombination. The resulting mutant, ΔacsA, was challenged with concentrations of acrylic acid, 3HP, and propionic acid above WT PCC 7002 MIC levels.
Deletion and complementation studies were performed in various Synechococcus spp. and Synechocystis spp. Replacement of the gene acsA in Synechococcus sp.

The test system of series [4] is AcsA. Nature of the series: Acyl-CoA ligase activity assay. It is filed as biochemical, Synechococcus sp. PCC 7002. The following applies: 2 mM organic acid, 500 nM AcsA, CoA consumed in 4 min relative to acetate. The protocol: Acyl-CoA ligase purification: Escherichia coli BL21 containing plasmid pET28b with acsA were grown in 50 mL of LB to an OD600 nm of 0.6 and induced with 1 mM IPTG. The induced culture was shaken at 37° C. for 3 hrs. The culture was centrifuged and the resulting cell pellet was frozen at −20° C. The cell pellet was processed with Novagen BugBuster Protein Extraction Reagent (Part No. 70584-3). The resulting soluble protein fraction was used for His-tag purification using Ni-NTA agarose beads (Qiagen) and Pierce 0.8-mL centrifugation columns (Part No. 89868). Washes were done with 50 mM NaH2PO4, 300 mM NaCl, and 30 mM imidizole pH 8.0. The his-tagged protein was eluted with 50 mM NaH2PO4, 300 mM NaCl, and 250 mM imidizole pH 8.0. The insoluble fraction from the protein extraction was washed twice with BugBuster reagent followed by incubation with 400 μL 8M urea, 100 mM Tris-HCl, and 100 mM β-mercaptoethanol pH 8.2 for 30 min. The resulting solution was centrifuged at 16,000×g and the supernatant was collected. Protein fractions were run on a SDS-PAGE gel. His-tag purified protein fractions used in the acyl-CoA ligase assay were concentrated and buffered exchanged using an Amicon Ultra-4 centrifugation column. The buffer used for enzyme storage contained 0.1M NaH2PO4, 1 mM EDTA, and 10% v/v glycerol.
Acyl-CoA ligase activity assay: Acyl-CoA ligase activity was determined by measuring the loss of free Coenzyme A (CoA) over time using Ellman's reagent. (Riddles P W, Blakeley R L, & Zerner B (1979) Ellman's reagent: 5,5′-dithiobis(2-nitrobenzoic acid)—a reexamination. Analytical Biochemistry 94(1):75-81.) The enzyme reaction contained 10 mM ATP, 8 mM MgCl2, 3 mM CoA, 0.1 M NaH2PO4, 1 mM EDTA, and 2 mM of the organic acid species. The concentration of AcsA in the reaction was 500 nM. Relative activity was determined by the amount of CoA consumed in 4 min relative to an acetate control.

Series [5] relates to Synechococcus sp. PCC 7002. Nature of the series: Minimum inhibitory concentration of organic acids / growth inhibition. The series is classed as cell-based. The following applies: for MIC: Synechococcus; for Minimum inhibitory concentration: Table 3.
From the text: as §1
(§5) The minimum inhibitory concentrations (MIC) for PCC 7002, Synechococcus sp. PCC 7942, and Synechocystis sp. PCC 6803 were determined for acrylic acid, 3HP, and propionic acid at a pH of about 8 (Table 1).

Series [6] concerns PCC 6803 sll0542::KmR. Nature of the series: Minimum inhibitory concentration, deletion strain. The series is classed as cell-based, Synechocystis sp. PCC 6803. The following applies: Synechocystis; Table 3. The protocol: as §4, §3
Series [7] relates to Synechococcus sp. PCC 7942. Nature of the series: Minimum inhibitory concentration of organic acids. It is filed as cell-based. The following applies: for MIC: Synechococcus; for Minimum inhibitory concentration: Table 3.
From the text: as §1, §2

Series [8] has as its system PCC 7002 acsA::BC glpK::acsAW49L aadA. Nature of the series: Minimum inhibitory concentration, acsAW49L complementation strain. The series is classed as cell-based, Synechococcus sp. PCC 7002. Conditions: Synechococcus, read-out: Minimum inhibitory concentration. How it is done:
as §4

The conditions of series [9]: cited from earlier work.
The subject of series [10] is PCC 7002 acsA::BC. Nature of the series: Minimum inhibitory concentration, acsA barcode replacement strain. It is filed as cell-based, Synechococcus sp. PCC 7002. The following applies: Synechococcus, read-out: Minimum inhibitory concentration. How it is done: as §4
Series [11] deals with PCC 7002 A^+. Nature of the series: Minimum inhibitory concentration, spontaneous acrylic acid-tolerant mutant. The series is classed as cell-based, Synechococcus sp. PCC 7002. The protocol:
as §5

[12] abbreviates: SP.PCC6803, read-out: Minimum inhibitory concentration.
[13] abbreviates: SP.PCC7002, read-out: Minimum inhibitory concentration.
Where [14] appears, read: SP.PCC7942, read-out: Minimum inhibitory concentration.

The structures appear in SMILES notation. In brackets after ≈: the same amount, converted by molar mass. Like-named read-outs stand apart in the source and are kept apart here. Bounds are passed on as bounds.

Take `O=C(O)CCO` [3HP, 3-hydroxypropionic acid]: the MIC in series [1] (setting [12]) is greater than 35000 µM; in series [2], 15000 µM (≈ 1350 µg/mL); in series [5] (setting [13]) it was 10000 µM (≈ 901 µg/mL); in series [6], less than 50000 µM; in series [7] (setting [14]), 2000 µM (≈ 180 µg/mL). In [3], the “Increase in MIC on functional deletion of the acsA gene product” value (“Increase in MIC on functional deletion” for short) is no less than 26 fold. Moreover, the “Concentration at which the ΔacsA mutant was able to grow without inhibition” value in [3] (ΔacsA mutant) is given as greater than 500 mM. The “Acyl-CoA ligase activity of AcsA towards substrate” value (“Acyl-CoA ligase activity” for short) in [4] is “has an activity”. The Minimum inhibitory concentration is 10000 µM (≈ 901 µg/mL) in series [5] and 2000 µM (≈ 180 µg/mL) in series [7].

For `CC(=O)O` [acetate, reference compound], the “Acyl-CoA ligase activity” value in series [4] is on record as “has an activity”.

As a reminder, the pKa is the negative logarithm of the acid dissociation constant. For the compound `C=CC(=O)O` [acrylic acid], the MIC in series [8] was determined as 7000 µM (≈ 504 µg/mL); in series [10], 70000 µM (≈ 5040 µg/mL); in [11] (Synechococcus, Table 1, strain isolated from agar plate containing 5 mM acrylic acid), 7000 µM (≈ 504 µg/mL); in [1] (setting [12]), 50 µM (≈ 3.6 µg/mL); in series [2], 15 µM (≈ 1.08 µg/mL); in series [3] (Synechococcus, read-out: Minimum inhibitory concentration), 70000 µM. Also, the MIC in series [5] (setting [13]) is 25 µM (≈ 1.8 µg/mL); in series [6], 70000 µM (≈ 5040 µg/mL); in series [7] (setting [14]), 3 µM (≈ 0.216 µg/mL). Further, the pKa in [9] was 4.35. Also, in series [11] (PCC 7002 A^+ vs WT), the “Increase in tolerance over WT PCC 7002 MIC values” is “about 280 fold”. Besides, the Minimum inhibitory concentration in [1] came out at 50 µM (≈ 3.6 µg/mL); in [5], 25 µM (≈ 1.8 µg/mL); in [7], 3 µM (≈ 0.216 µg/mL). Besides, in series [3], the “Increase in MIC on functional deletion” value is reported as no less than 2.800 fold. Further, in [4], the “Acyl-CoA ligase activity” value is on record as “has an activity”. Further, in series [5] (growth by OD730), the Inhibitory concentration result was “less than 5 mM”. Also, the “pH dependence of toxicity” value in series [5] (toxicity increasing with decreasing pH) is given as “pH dependent”.

On to `CCC(=O)O` [propionic acid], for which the MIC is 250 µM (≈ 18.5 µg/mL) in [1] (SP.PCC6803, Table 1, pH of about 8, no increase in OD730, read-out: Minimum inhibitory concentration); 4000 µM (≈ 296 µg/mL) in series [5] (SP.PCC7002, Table 1, pH of about 8, no increase in OD730, read-out: Minimum inhibitory concentration); 250 µM (≈ 18.5 µg/mL) in series [7] (SP.PCC7942, Table 1, pH of about 8, no increase in OD730, read-out: Minimum inhibitory concentration). Also, the Minimum inhibitory concentration amounted to 250 µM (≈ 18.5 µg/mL) in series [1], 4000 µM (≈ 296 µg/mL) in series [5] and 250 µM (≈ 18.5 µg/mL) in series [7]. For the same compound, the “Increase in MIC on functional deletion” value in series [3] is no less than 100 fold. For the same compound, the “Acyl-CoA ligase activity” value in series [4] was “has an activity”.
